Drawing on BindingDB's records for doi:10.1021/jm900431g (Boehringer Ingelheim Pharma, 2009), this text covers IC50 for three compounds.

The target of the assay is Vascular endothelial growth factor receptor 2 (Homo sapiens, UniProt P35968). Kind of assay: Inhibition of human VEGFR2 expressed in Sf9 cells.
Vascular endothelial growth factor receptor 2, sequence (P35968 whole entry): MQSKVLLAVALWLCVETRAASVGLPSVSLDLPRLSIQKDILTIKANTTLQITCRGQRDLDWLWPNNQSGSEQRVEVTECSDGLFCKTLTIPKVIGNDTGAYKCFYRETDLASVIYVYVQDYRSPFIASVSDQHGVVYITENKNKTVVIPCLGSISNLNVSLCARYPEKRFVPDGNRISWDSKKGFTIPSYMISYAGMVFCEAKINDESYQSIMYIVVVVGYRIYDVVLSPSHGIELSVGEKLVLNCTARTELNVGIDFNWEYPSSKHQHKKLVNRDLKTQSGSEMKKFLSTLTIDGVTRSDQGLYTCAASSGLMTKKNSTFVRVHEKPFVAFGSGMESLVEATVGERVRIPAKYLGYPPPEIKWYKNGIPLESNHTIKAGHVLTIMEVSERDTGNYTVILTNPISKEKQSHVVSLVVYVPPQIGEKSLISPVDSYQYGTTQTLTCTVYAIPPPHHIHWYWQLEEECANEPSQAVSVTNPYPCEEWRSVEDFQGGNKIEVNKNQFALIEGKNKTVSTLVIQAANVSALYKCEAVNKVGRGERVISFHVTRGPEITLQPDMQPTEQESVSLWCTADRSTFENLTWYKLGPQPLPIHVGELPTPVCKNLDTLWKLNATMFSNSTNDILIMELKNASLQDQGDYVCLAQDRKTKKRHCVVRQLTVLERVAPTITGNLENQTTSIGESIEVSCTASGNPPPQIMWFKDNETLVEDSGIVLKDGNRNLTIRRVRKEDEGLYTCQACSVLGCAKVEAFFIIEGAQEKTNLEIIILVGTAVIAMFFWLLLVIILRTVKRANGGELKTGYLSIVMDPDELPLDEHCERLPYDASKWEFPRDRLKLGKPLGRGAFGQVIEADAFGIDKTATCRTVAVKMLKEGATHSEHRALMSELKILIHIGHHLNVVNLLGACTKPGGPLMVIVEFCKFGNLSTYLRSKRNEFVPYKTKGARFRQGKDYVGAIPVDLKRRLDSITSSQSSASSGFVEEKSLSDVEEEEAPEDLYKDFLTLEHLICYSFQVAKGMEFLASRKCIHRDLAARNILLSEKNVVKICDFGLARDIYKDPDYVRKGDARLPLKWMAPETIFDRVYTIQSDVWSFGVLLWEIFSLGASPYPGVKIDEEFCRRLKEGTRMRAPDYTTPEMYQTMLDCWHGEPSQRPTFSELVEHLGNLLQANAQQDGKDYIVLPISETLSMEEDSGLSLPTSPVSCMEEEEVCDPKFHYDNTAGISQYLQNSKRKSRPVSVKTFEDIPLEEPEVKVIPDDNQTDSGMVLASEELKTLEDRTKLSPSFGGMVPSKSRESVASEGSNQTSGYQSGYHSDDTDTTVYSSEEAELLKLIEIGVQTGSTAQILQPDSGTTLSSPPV
As for `COC(=O)c1ccc2c(c1)NC(=O)C2C(=NC1CCC(NC(=O)CN(C)C)CC1)c1ccccc1` (stereo not drawn) [(Z)-methyl 3-((4-(2-(dimethylamino)acetamido)cyclohexylamino)(phenyl)methylene)-2-oxoindoline-6-carboxylate], the IC50 (in general, the point on the concentration scale where inhibition reaches its midpoint) was above 10 µM. The figure for `COC(=O)c1ccc2c(c1)NC(=O)C2C(=NC1CCN(C)CC1)c1ccccc1` (stereo not drawn) [(Z)-3-[(1-Methylpiperidin-4-ylamino)-phenyl-methylene]-2-oxo-2,3-dihydro-1H-indole-6-carboxylic Acid Methyl Ester] is above 10 µM. `N#Cc1ccc2c(c1)NC(=O)C2C(=Nc1ccc(CN2CCCCC2)cc1)c1ccccc1` (stereo not drawn) [(Z)-6-Cyano-3-[phenyl-(4-piperidin-1-ylmethyl-phenylamino)-methylene]-indolin-2-one]: the IC50 was determined as 0.248 µM.
